The values that follow come from ChEMBL document CHEMBL6103618, “Discovery of Novel Oxazolo[4,3-f]purine Derivatives as Antitumor Agents through PPIA Interaction” (J Med Chem, 2025).

Where only a bound is given, the exact number is not on record here.

One assay deals with HeLa. As to the kind of experiment: Antiproliferative activity against human HeLa cells assessed as inhibition of cell viability incubated for 48 hrs by CCK8 assay. The class given is functional, cell-based. For orientation: Tetrazolium dyes change colour on reduction, which living cells bring about.
The subject of the next assay is HCT-116. The assay can be described thus: Antiproliferative activity against human HCT-116 cells assessed as inhibition of cell viability incubated for 48 hrs by CCK8 assay. The class given is functional, cell-based. The conditions noted are these: HCT-116, 48 h.

The term IC50 denotes the concentration that inhibits the measured activity by half. On to `CCOC(=O)/C=C\N1c2nc(Cl)nc(Cl)c2N2C(c3ccccc3)OC(C(=O)OCC)(C(=O)OCC)C12` (configuration not stated), for which the IC50 with HeLa and with HCT-116 was more than 50 µM each time.

Take `C=C(C(=O)OC)N1c2nc(Cl)nc(Cl)c2N2[C@@H](c3ccccc3F)OC(C(=O)OCC)(C(=O)OCC)[C@H]12`: the half-maximal inhibitory concentration (IC50) turned out to be 0.74 µM in the assay with HeLa and 0.24 µM in the assay on HCT-116.

`C=C(C(=O)OC)N1c2nc(Cl)nc(Cl)c2N2[C@H](c3ccccc3F)OC(C(=O)OCC)(C(=O)OCC)[C@@H]12`: the IC50 in the assay with HeLa was found to be 0.47 µM; in the assay on HCT-116, 0.65 µM.

On to `CCOC(=O)/C=C/N1c2nc(Cl)nc(Cl)c2N2C(c3cccc([N+](=O)[O-])c3)OC(C(=O)OCC)(C(=O)OCC)C12` (racemic), for which the IC50 with HeLa was 6.52 µM; with HCT-116, 4.33 µM.

Consider `CCOC(=O)/C=C/N1c2nc(Cl)nc(Cl)c2N2C(c3ccc(I)cc3)OC(C(=O)OCC)(C(=O)OCC)C12` (racemic), for which the IC50 was more than 50 µM in the assay with HeLa and 15.8 µM in the assay with HCT-116.

For `CCOC(=O)/C=C/N1c2nc(Cl)nc(Cl)c2N2C(c3ccccc3I)OC(C(=O)OCC)(C(=O)OCC)C12` (racemic), the half-inhibitory concentration (IC50) is 10.2 µM with HeLa and 3.73 µM with HCT-116.

Turning to `CCOC(=O)/C=C/N1c2nc(Cl)nc(Cl)c2N2C(c3cccc(Br)c3)OC(C(=O)OCC)(C(=O)OCC)C12` (racemic), the half-maximal inhibitory concentration (IC50) worked out at 11.7 µM in the assay with HeLa and 7.92 µM in the assay on HCT-116.

Turning to `CCOC(=O)/C=C/N1c2nc(Cl)nc(Cl)c2N2C(c3ccccc3)OC(C(=O)OCC)C12` (racemic), the IC50 in the assay with HeLa is 6.57 µM; with HCT-116, 11.9 µM.

Take `CCOC(=O)C1(C(=O)OCC)OC(c2ccccc2)N2c3c(Cl)nc(Cl)nc3N(/C=C/C(=O)OC(C)(C)C)C21` (racemic): the IC50 in the assay with HeLa and in the assay on HCT-116 was more than 50 µM each time.

For `CCOC(=O)/C=C/N1c2nc(Cl)nc(Cl)c2N2C(c3cc(OC)c(OC)c(OC)c3)OC(C(=O)OCC)(C(=O)OCC)C12` (racemic), the figures for the IC50 in the assay on HeLa and in the assay on HCT-116 were more than 50 µM and 14 µM, respectively.

Regarding `CCOC(=O)/C=C/N1c2nc(Cl)nc(Cl)c2N2C(c3ccc(Cl)c(Cl)c3)OC(C(=O)OCC)(C(=O)OCC)C12` (racemic), the IC50 in the assay on HeLa was 16.4 µM; in the assay on HCT-116 it was 10.9 µM.

Turning to `CCOC(=O)/C=C/N1c2nc(Cl)nc(Cl)c2N2C(c3ccc(C)cc3)OC(C(=O)OCC)(C(=O)OCC)C12` (racemic), the IC50 in the assay with HeLa came to 43.7 µM; with HCT-116, 20.7 µM.

For the molecule `CCCSc1nc(Cl)nc2c1N1C(c3ccccc3)OC(C(=O)OCC)(C(=O)OCC)C1N2/C=C/C(=O)OCC` (racemic), the IC50 in the assay on HeLa and with HCT-116 was more than 50 µM each time.

Turning to `CCOC(=O)/C=C/N1c2nc(Cl)nc(Cl)c2N2C(c3cccc4ccccc34)OC(C(=O)OCC)(C(=O)OCC)C12` (racemic), the IC50 in the assay on HeLa and in the assay with HCT-116 was more than 50 µM each time.

As to `CCOC(=O)/C=C/N1c2nc(Cl)nc(Cl)c2N2C(c3cccc(OC)c3)OC(C(=O)OCC)(C(=O)OCC)C12` (racemic), the 50% inhibitory concentration (IC50) with HeLa amounted to 45.9 µM; with HCT-116, 20.7 µM.

As for `C=C(C(=O)OCC)N1c2nc(Cl)nc(Cl)c2N2C(c3ccccc3F)OC(C(=O)OCC)(C(=O)OCC)C12` (racemic), the figures for the IC50 with HeLa and in the assay on HCT-116 were 0.55 µM and 0.82 µM, respectively.

Take `CCOC(=O)C1(C(=O)OCC)OC(c2ccccc2)N2c3c(Cl)nc(Cl)nc3N(/C=C/C(=O)OCc3ccccc3)C21` (racemic): the half-inhibitory concentration (IC50) in the assay with HeLa and in the assay with HCT-116 was more than 50 µM each time.

On to `CCOC(=O)/C=C/N1c2nc(Cl)nc(N)c2N2C(c3ccccc3)OC(C(=O)OCC)(C(=O)OCC)C12` (racemic), for which the IC50 with HeLa and in the assay with HCT-116 was more than 50 µM each time.

For the molecule `CCOC(=O)/C=C/N1c2nc(Cl)nc(Cl)c2N2C(c3ccccc3)OC(C(=O)OCc3ccccc3)(C(=O)OCc3ccccc3)C12` (racemic), the half-maximal inhibitory concentration (IC50) with HeLa and in the assay on HCT-116 was more than 50 µM throughout.

Take `CCOC(=O)/C=C/N1c2ncncc2N2C(c3ccccc3)OC(C(=O)OCC)(C(=O)OCC)C12` (racemic): the half-maximal inhibitory concentration (IC50) in the assay with HeLa and in the assay on HCT-116 was more than 50 µM each time.

Turning to `CCOC(=O)/C=C/N1c2nc(Cl)nc(Cl)c2N2C(c3ccccc3F)OC(C(=O)OCC)(C(=O)OCC)C12` (racemic), the IC50 in the assay with HeLa is 2.12 µM; in the assay on HCT-116, 2.19 µM.

Turning to `CCOC(=O)/C=C/N1c2nc(Cl)nc(Cl)c2N2C(c3ccccc3)OC(C(=O)OCC)(C(=O)OCC)C12` (racemic), the IC50 with HeLa is 12.3 µM; in the assay on HCT-116, 13.8 µM.

For the molecule `CCOC(=O)/C=C/N1c2nc(Cl)nc(Cl)c2N2C(c3ccc([N+](=O)[O-])cc3)OC(C(=O)OCC)(C(=O)OCC)C12` (racemic), the figures for the IC50 in the assay with HeLa and with HCT-116 were 9.73 µM and 4.94 µM, respectively.

Turning to `CCOC(=O)/C=C/N1c2nc(F)nc(Cl)c2N2C(c3ccccc3)OC(C(=O)OCC)(C(=O)OCC)C12` (racemic), the IC50 in the assay with HeLa was 18.3 µM; in the assay on HCT-116, 18.6 µM.

With `CCCSc1ncnc2c1N1C(c3ccccc3)OC(C(=O)OCC)(C(=O)OCC)C1N2/C=C/C(=O)OCC` (racemic), the 50% inhibitory concentration (IC50) with HeLa and with HCT-116 was more than 50 µM in each case.

With `C=C(C(=O)OCC)N1c2nc(Cl)nc(Cl)c2N2C(c3ccccc3Cl)OC(C(=O)OCC)(C(=O)OCC)C12` (racemic), the IC50 in the assay with HeLa is 2.8 µM; with HCT-116, 2.47 µM.

Regarding `CCOC(=O)/C=C/N1c2nc(Cl)nc(Cl)c2N2C(c3ccccc3Cl)OC(C(=O)OCC)(C(=O)OCC)C12` (racemic), the half-maximal inhibitory concentration (IC50) stood at 3.55 µM in the assay with HeLa and 2.7 µM with HCT-116.

In the case of `CCOC(=O)/C=C/N1c2nc(Cl)nc(Cl)c2N2C(c3ccc(Br)cc3)OC(C(=O)OCC)(C(=O)OCC)C12` (racemic), the IC50 in the assay with HeLa stood at 13.7 µM; in the assay on HCT-116, 9.32 µM.

`CCOC(=O)/C=C/N1c2nc(Cl)nc(Cl)c2N2C(c3ccc(F)cc3)OC(C(=O)OCC)(C(=O)OCC)C12` (racemic): the IC50 with HeLa was determined as 7.16 µM; with HCT-116 it was 6.97 µM.

As for `CCOC(=O)/C=C/N1c2nc(Cl)nc(Cl)c2N2C(c3ccc4ccccc4c3)OC(C(=O)OCC)(C(=O)OCC)C12` (racemic), the concentration for half-maximal inhibition (IC50) in the assay with HeLa and with HCT-116 was more than 50 µM each time.

For `CCOC(=O)/C=C/N1c2nc(Cl)nc(Cl)c2N2C(c3cccs3)OC(C(=O)OCC)(C(=O)OCC)C12` (racemic), the half-inhibitory concentration (IC50) in the assay on HeLa and in the assay on HCT-116 was more than 50 µM in each case.

Take `CCOC(=O)/C=C/N1c2nc(Cl)nc(Cl)c2N2C(c3ccccc3Br)OC(C(=O)OCC)(C(=O)OCC)C12` (racemic): the IC50 was determined as 3.15 µM in the assay on HeLa and 3.41 µM in the assay with HCT-116.

`CCOC(=O)C1(C(=O)OCC)OC(c2ccccc2)N2c3c(Cl)nc(Cl)nc3N(/C=C/C(=O)OC)C21` (racemic): the half-maximal inhibitory concentration (IC50) is 11.2 µM in the assay on HeLa and 14.2 µM with HCT-116.

Consider `CCOC(=O)/C=C/N1c2nc(Cl)nc(Cl)c2N2C(c3cccc(C)c3)OC(C(=O)OCC)(C(=O)OCC)C12` (racemic), for which the IC50 was 26.2 µM in the assay with HeLa and 10.4 µM in the assay on HCT-116.

With `CCOC(=O)/C=C/N1c2nc(Cl)nc(Cl)c2N2C(c3ccc(Cl)cc3)OC(C(=O)OCC)(C(=O)OCC)C12` (racemic), the concentration for half-maximal inhibition (IC50) is more than 50 µM in the assay with HeLa and 7.14 µM in the assay with HCT-116.

As for `CCOC(=O)/C=C/N1c2nc(Cl)nc(Cl)c2N2C(c3ccc(C(F)(F)F)cc3)OC(C(=O)OCC)(C(=O)OCC)C12` (racemic), the IC50 in the assay with HeLa is more than 50 µM; in the assay with HCT-116, 7.13 µM.

`CCOC(=O)/C=C/N1c2nc(Cl)nc(Cl)c2N2C(c3ccccc3)OC(COS(=O)(=O)c3ccc(C)cc3)(COS(=O)(=O)c3ccc(C)cc3)C12` (racemic): the half-inhibitory concentration (IC50) in the assay on HeLa and in the assay with HCT-116 was more than 50 µM each time.

Consider `CCOC(=O)/C=C/N1c2nc(Cl)nc(Cl)c2N2C(c3cccc(F)c3)OC(C(=O)OCC)(C(=O)OCC)C12` (racemic), for which the values for the IC50 in the assay with HeLa and in the assay on HCT-116 were 6.72 µM and 5.1 µM, respectively.

For `CCOC(=O)/C=C/N1c2nc(Cl)nc(Cl)c2N2C(c3ccc(-c4ccccn4)cc3)OC(C(=O)OCC)(C(=O)OCC)C12` (racemic), the concentration for half-maximal inhibition (IC50) in the assay on HeLa was more than 50 µM; with HCT-116, 21.7 µM.

Turning to `CCOC(=O)/C=C/N1c2nc(Cl)nc(Cl)c2N2C(c3ccccc3C)OC(C(=O)OCC)(C(=O)OCC)C12` (racemic), the IC50 in the assay with HeLa was found to be 12.4 µM; with HCT-116 it was 9.84 µM.

`CCOC(=O)/C=C/N1c2ncnc(OC)c2N2C(c3ccccc3)OC(C(=O)OCC)(C(=O)OCC)C12` (racemic): the IC50 with HeLa and with HCT-116 was more than 50 µM throughout.

For the molecule `CCOC(=O)/C=C/N1c2nc(Cl)nc(Cl)c2N2C(c3cccc(C(F)(F)F)c3)OC(C(=O)OCC)(C(=O)OCC)C12` (racemic), the IC50 in the assay on HeLa was determined as 10 µM; in the assay with HCT-116 it was 3.56 µM.

With `CCOC(=O)/C=C/N1c2nc(Cl)nc(Cl)c2N2C(c3ccccc3)OC(C(=O)OC)(C(=O)OC)C12` (racemic), the IC50 in the assay with HeLa is 12.6 µM; in the assay with HCT-116 it was 6.93 µM.

For `CCOC(=O)/C=C/N1c2nc(Cl)nc(Cl)c2N2C(c3ccccc3C(F)(F)F)OC(C(=O)OCC)(C(=O)OCC)C12` (racemic), the results for the half-maximal inhibitory concentration (IC50) in the assay on HeLa and in the assay with HCT-116 were 4.95 µM and 3.29 µM, respectively.

Consider `CCOC(=O)/C=C/N1c2nc(Cl)nc(Cl)c2N2C(c3cccc(Cl)c3)OC(C(=O)OCC)(C(=O)OCC)C12` (racemic), for which the concentration for half-maximal inhibition (IC50) with HeLa is 16.6 µM; in the assay with HCT-116, 7.36 µM.

In the case of `CCOC(=O)/C=C/N1c2nc(Cl)nc(OC)c2N2C(c3ccccc3)OC(C(=O)OCC)(C(=O)OCC)C12` (racemic), the IC50 in the assay with HeLa and in the assay with HCT-116 was more than 50 µM each time.

In the case of `C=C(C(=O)OCC)N1c2nc(Cl)nc(Cl)c2N2C(c3ccccc3)OC(C(=O)OCC)(C(=O)OCC)C12` (racemic), the 50% inhibitory concentration (IC50) in the assay with HeLa is 1.74 µM; with HCT-116, 2.5 µM.

Consider `CCOC(=O)/C=C/N1c2ncnc(Cl)c2N2C(c3ccccc3)OC(C(=O)OCC)(C(=O)OCC)C12` (racemic), for which the half-inhibitory concentration (IC50) in the assay on HeLa was more than 50 µM; with HCT-116 it was 34 µM.

Take `CCOC(=O)/C=C/N1c2nc(Cl)nc(Cl)c2N2C(c3ccccc3)OC(CO)(CO)C12` (racemic): the figures for the half-maximal inhibitory concentration (IC50) in the assay with HeLa and in the assay with HCT-116 were 15.4 µM and 11.2 µM, respectively.

Regarding `CCOC(=O)/C=C/N1c2nc(Cl)nc(Cl)c2N2C(c3ccccc3)OC(CO)C12` (racemic), the IC50 in the assay with HeLa is 18.3 µM; in the assay on HCT-116 it was 11.4 µM.

With `CCOC(=O)/C=C/N1c2nc(Cl)nc(Cl)c2N2C(c3ccc(C)c(C)c3)OC(C(=O)OCC)(C(=O)OCC)C12` (racemic), the half-maximal inhibitory concentration (IC50) in the assay on HeLa came out at 1.92 µM; in the assay with HCT-116, 14.9 µM.
